Experimental data: patent publication US6569631B1, “Microplate thermal shift assay for ligand development using 5-(4″dimethylaminophenyl)-2-(4′-phenyl)oxazole derivative fluorescent dyes” (3-Dimensional Pharmaceuticals, Inc., priority 1998, dated 2003)

Columns and labels:
[1] = target: T1, heparin binding site of human α-thrombin (Homo sapiens, UniProt P00734); test: Microplate thermal shift assay, ligands binding to the heparin binding site, turbidity signal
T1 construct: A stock human α-thrombin solution (1.56 mg/mL) from Enzyme Research Labs; purchased Enzyme Research Labs
Description: Assays for ligands that bind to the heparin binding site of human α-thrombin are more difficult to perform than assays for ligands that bind to the active site of human α-thrombin. At the heparin binding site, no substrate is hydrolyzed, so no spectrophotometric signal can be amplified for instrumental detection. Heparin activity is usually estimated in biological clotting time assays. […] Thus, heparin binding to human α-thrombin represents the kind of challenge encountered with the vast majority of non-enzyme receptor/ligand binding events, which are commonly observed for hormone/receptor interactions, repressor/DNA interactions, neurotransmitter/receptor interactions, etc. Several heparin-like sulfated oligosaccharides and sulfated naphthalene compounds were assayed by the microplate thermal shift assay. Using the thermal shift assay, it was possible to use a single compound per well to quickly rank the compounds in order of increasing binding affinity, with Kd's ranging over three orders of magnitude (see Table 4). Like the experiment in Example 1, the thermal shift assay results agreed closely with the results obtained through an alternative method, which required a series of laborious (15 to 20 single determinations) fluorescence quench assays over a wide range of concentrations of low MW heparin (Olson, S. T. et al., J. Biol. Chem. 266:6342-6352 (1991)).

[2] = target: T2, acidic fibroblast growth factor (aFGF) (Homo sapiens, UniProt P05230); test: Microplate thermal shift assay for ligands binding to aFGF, turbidity signal; conditions: turbidity signal; aFGF 0.25 mg/mL; ligand 47-200 μM
T2 construct: host or cells: E. coli
Description: The second therapeutic receptor tested in the microplate thermal shift assay was acidic fibroblast growth factor (aFGF), a growth factor that plays a key role in angiogenesis (Folkman, J. et al., J. Biol. Chem. 267:1.0931-10934 (1992)). A synthetic gene for this protein was purchased from R&D Systems (Minneapolis, Minn.), and was cloned and expressed in E. coli using methods similar to those described for basic fibroblast growth factor (bFGF) (Thompson, L. D. et al., Biochemistry 33:3831-3840 (1994); Pantoliano, M. W. et al., Biochemistry 33:10229-10248 (1994); Springer, B. A. et al., J. Biol. Chem. 269:26879-26884 (1994)). Recombinant aFGF was then purified by heparin-sepharose affinity chromatography as described (Thompson, L. D. et al., Biochemistry 33:3831-3840 (1994)). aFGF is also known to bind heparin/heparan, which is a cofactor for mitogenic activity. […] A microplate thermal assay of these compounds was set up in a way similar to that described above for human α-thrombin. […] The affinity constants covered a fairly broad range of binding affinities, with pentosan PSO4 showing the highest affinity.

[3] = system: D(II) domain of fibroblast growth factor receptor 1 (FGFR1); test: Microplate thermal shift assay for ligands binding to D(II) FGFR1, fluorescence emission signal; set-up: species or system human; conditions: D(II) FGFR1 70 μM; 136 μM ANS; ligand 150-156 μM
Description: The microplate thermal-shift assay was employed to test the binding of heparin 5000 and pentosan PSO4 to the known heparin binding site in the D(II) domain of fibroblast growth factor receptor 1 (FGFR1). D(II) FGFR1 is a 124 residue domain which is responsible for most of the free energy of binding for bFGF. D(II) FGFR1 was cloned and expressed in E. coli. Recombinant D(II) FGFR1 was renatured from inclusion bodies essentially as described (Wetmore, D. R. et al., Proc. Soc. Mtg., San Diego, Calif. (1994)), except that a hexa-histidine tag was included at the N-terminus to facilitate recovery by affinity chromatography on a Ni^2+ chelate column (Janknecht, R. et al., Natl. Acad. Sci. USA 88:8972-8976 (1991)). D(II) FGFR1 was further purified on a heparin-sepharose column (Kan, M. et al., Science 259:1918-1921 (1993); Pantoliano, M. W. et al., Biochemistry 33:10229-10248 (1994)). […]
The D(II) FGFR1 protein was dissolved in an ANS solution to a concentration of 1.0 mg/mL (70 μM). […] Because ANS fluorescence is very environment dependent (see Lakowicz, I. R., Principles of Fluorescence Spectroscopy, Plenum Press, New York (1983)), the quantum yield observed for the denaturation of different proteins will vary. […] A similar result was obtained for Factor Xa, except that the fluorescence quantum yield for ANS bound to denatured Factor Xa was almost as good as it was for human α-thrombin.

[4] = target: bFGF (Homo sapiens, UniProt P09038); conditions: read-out: affinity for binding to bFGF by isothermal titrating calorimetry; cited from earlier work
[5] = many described as coagulation anomalies; cited from earlier work

T2 sequence (P05230 whole entry, species assumed): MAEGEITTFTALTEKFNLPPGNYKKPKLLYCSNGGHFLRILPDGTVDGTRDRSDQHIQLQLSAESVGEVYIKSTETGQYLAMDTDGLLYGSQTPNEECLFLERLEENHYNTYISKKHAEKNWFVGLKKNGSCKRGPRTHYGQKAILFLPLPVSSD
D(II) domain of fibroblast growth factor receptor 1 (FGFR1), sequence (P11362 158-246 limits assumed): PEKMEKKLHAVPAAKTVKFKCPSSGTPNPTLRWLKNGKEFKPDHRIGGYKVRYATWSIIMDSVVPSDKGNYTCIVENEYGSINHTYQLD
bFGF, sequence (P09038 134-288): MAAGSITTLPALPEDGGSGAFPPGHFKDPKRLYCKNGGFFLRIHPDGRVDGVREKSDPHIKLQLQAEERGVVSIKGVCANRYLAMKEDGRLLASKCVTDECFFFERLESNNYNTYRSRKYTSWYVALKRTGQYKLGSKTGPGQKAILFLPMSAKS

- affinity at Tm higher than the affinity of heparin 5000 ([1]; thermal shift assay, Table 4): 7 fold
- Tm ([1]; turbidity signal, 11 μM thrombin, ligand 40-102 μM): 332.15 °K
- Tm [2]: 336.15 °K
- Tm [3]: 319.4 °K
Substance: pentosan polysulfate [Pentosan PSO4]
- Kd [4]: 88 nM
- outcome of clinical trials for antiangiogenic activity [5]: discounted due to toxic effects
